The target in one data set is hERG (KCNH2) (Homo sapiens, UniProt Q12809). Briefly: Displacement of [3H] astemizole from human ERG channel at 5 uM. The settings on record: probe [3H] astemizole. A general note: Displacement assays read how much labelled ligand stays bound in the presence of the test substance.
A further data set has as its target Cytochrome P450 2C9 (Homo sapiens, UniProt P11712). The data set can be described thus: Inhibition of CYP2C9 in human liver microsomes using warfarin as substrate after 30 mins by LC/MS/MS analysis. In kind it is ADME.
The next data set concerns the target Cytochrome P450 3A4 (Homo sapiens, UniProt P08684). Briefly: Inhibition of CYP3A4 in human liver microsomes using testosterone/midazolam as substrate after 30 mins by LC/MS/MS analysis. In kind it is ADME. For orientation: Liver microsomes are a subcellular fraction often used to study metabolism.
The next data set addresses T1, Cytochrome P450 1A2 (Homo sapiens, UniProt P05177).
T1 sequence (P05177 whole entry): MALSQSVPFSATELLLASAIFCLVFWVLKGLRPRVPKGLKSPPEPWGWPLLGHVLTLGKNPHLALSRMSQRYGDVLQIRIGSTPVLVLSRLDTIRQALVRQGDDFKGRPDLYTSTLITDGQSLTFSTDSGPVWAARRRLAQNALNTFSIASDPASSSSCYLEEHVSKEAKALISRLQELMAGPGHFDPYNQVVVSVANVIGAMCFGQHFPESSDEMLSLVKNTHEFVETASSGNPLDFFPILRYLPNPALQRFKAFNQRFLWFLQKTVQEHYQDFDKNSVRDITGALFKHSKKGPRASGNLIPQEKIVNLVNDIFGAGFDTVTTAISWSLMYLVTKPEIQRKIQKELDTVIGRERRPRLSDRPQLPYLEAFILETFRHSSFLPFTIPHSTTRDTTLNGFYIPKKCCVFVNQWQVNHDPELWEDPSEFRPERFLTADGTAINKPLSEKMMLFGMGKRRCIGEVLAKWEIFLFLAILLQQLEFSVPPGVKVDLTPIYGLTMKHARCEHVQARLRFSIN
Briefly: Inhibition of CYP1A2 in human liver microsomes using phenacetin as substrate after 30 mins by LC/MS/MS analysis. In kind it is ADME.

The target of a further data set is Cytochrome P450 2D6 (Homo sapiens, UniProt P10635). The data set can be described thus: Inhibition of CYP2D6 in human liver microsomes using dextromethorphan as substrate after 30 mins by LC/MS/MS analysis. In kind it is ADME.
For a further data set, the target named is Cytochrome P450 2C19 (Homo sapiens, UniProt P33261). Briefly: Inhibition of CYP2C19 in human liver microsomes using mephenytoin as substrate after 30 mins by LC/MS/MS analysis. Format: ADME.
Data set [1] has as its target Sodium channel protein type 9 subunit alpha (Homo sapiens, UniProt Q15858). The data set can be described thus: Inhibition of full length human Nav1.7 channel expressed in HEK cells co-expressing human sodium channel subunit beta1 at holding potential -60 mV by automated voltage clamp analysis. Format: cell-based, HEK293.
Data set [2] has as its target Sodium channel protein type 5 subunit alpha (Homo sapiens, UniProt Q14524). Briefly: Inhibition of full length human Nav1.5 channel expressed in HEK cells co-expressing human sodium channel subunit beta1 at holding potential -60 mV by automated voltage clamp analysis. In kind it is cell-based, HEK293.
Data set [3] relates to Rattus norvegicus. Briefly: Analgesic activity in rat assessed as reduction in formalin-induced late phase pain response at 100 mg/kg, ip dosed 2 hrs prior to formalin challenge measured over 10 to 40 mins by automated nociception analysis relative to formalin. In kind it is functional. On the set-up: scale not given: the % may be the effect or the level left.
Data set [4] relates to Rattus norvegicus. The data set can be described thus: Analgesic activity in rat assessed as inhibition of aconitine-induced pain response at 100 mg/kg, ip dosed 2 hrs prior to aconitine challenge measured over 60 mins by automated nociception analysis relative to aconitine. On the set-up: scale not given: the % may be the effect or the level left. Format: functional.
For data set [5], the system named is Rattus norvegicus. Briefly: Analgesic activity in formalin-induced rat pain model assessed as free plasma concentration required to show efficacy at 30 to 100 mg/kg, ip dosed 2 hrs prior to aconitine challenge measured over 60 mins by automated nociception analysis. In kind it is functional.
Data set [6] deals with Rattus norvegicus. The data set can be described thus: Analgesic activity in aconitine-induced rat pain model assessed as free plasma concentration required to show efficacy at 30 to 100 mg/kg, ip dosed 2 hrs prior to aconitine challenge measured over 60 mins by automated nociception analysis. Format: functional.
Data set [7] deals with Mus musculus. Briefly: Analgesic activity in mouse assessed as reduction in CFA-induced cold allodynia at 30 mg/kg, ip administered 1 hr prior to acetone challenge on day 2 post CFA injection measured for 120 secs relative to vehicle control. In kind it is functional. Details: scale not given: the % may be the effect or the level left.
Data set [8] has as its system Mus musculus. The data set can be described thus: Analgesic activity in mouse assessed as reduction in CFA-induced cold allodynia at 100 mg/kg, ip administered 1 hr prior to acetone challenge on day 2 post CFA injection measured for 120 secs relative to vehicle control. Format: functional. On the set-up: scale not given: the % may be the effect or the level left.
Data set [9] can be described thus: Selectivity ratio of IC50 for rat Nav1.7 to IC50 for human Nav1.7.
Data set [10] has as its system Rattus norvegicus. The data set can be described thus: Analgesic activity in ip dosed rat assessed as inhibition of formalin-induced late phase pain response dosed 2 hrs prior to formalin challenge measured over 10 to 40 mins by automated nociception analysis. Format: functional, organism-based.
For data set [11], the system named is Rattus norvegicus. Briefly: Analgesic activity in rat assessed as inhibition of formalin-induced late phase pain response at 30 mg/kg,ip dosed 2 hrs prior to formalin challenge measured over 10 to 40 mins by automated nociception analysis. In kind it is functional, organism-based.
In data set [12] the test system is Rattus norvegicus. Briefly: Analgesic activity in rat assessed as delay in onset of formalin-induced pain response at 100 mg/kg,ip dosed 2 hrs prior to formalin challenge measured over 60 mins by automated nociception analysis. In kind it is functional, organism-based.
For data set [13], the system named is Rattus norvegicus. The data set can be described thus: Analgesic activity in rat assessed as inhibition of aconitine-induced pain response at 30 mg/kg, ip dosed 2 hrs prior to aconitine challenge measured over 60 mins by automated nociception analysis relative to control. In kind it is functional, organism-based.
Data set [14] relates to Mus musculus. The data set can be described thus: Analgesic activity in mouse assessed as reduction in CFA-induced cold allodynia at 10 mg/kg, ip administered 1 hr prior to acetone challenge on day 2 post CFA injection measured for 120 secs relative to vehicle control. Format: functional, organism-based.
Data set [15] has as its system Mus musculus. Briefly: Analgesic activity in ip dosed mouse assessed as reduction in CFA-induced cold allodynia administered 1 hr prior to acetone challenge on day 2 post CFA injection measured for 120 secs relative to vehicle control. In kind it is functional, organism-based.
For the next data set, the species on record is Homo sapiens. Briefly: Selectivity ratio of IC50 for human Nav1.5 to IC50 for human Nav1.7.
The target of data set [16] is Sodium channel protein type 1 subunit alpha (Homo sapiens, UniProt P35498). The data set can be described thus: Inhibition of full length human Nav1.1 channel expressed in HEK cells co-expressing human sodium channel subunit beta1 at holding potential -40 mV by automated voltage clamp analysis. Format: cell-based, HEK293.
In data set [17] the target is Sodium channel protein type 2 subunit alpha (Homo sapiens, UniProt Q99250). The data set can be described thus: Inhibition of full length human Nav1.2 channel expressed in HEK cells co-expressing human sodium channel subunit beta1 at holding potential -35 mV by automated voltage clamp analysis. Format: cell-based, HEK293.
In data set [18] the target is Sodium channel protein type 4 subunit alpha (Homo sapiens, UniProt P35499). The data set can be described thus: Inhibition of full length human Nav1.4 channel expressed in HEK cells co-expressing human sodium channel subunit beta1 by automated voltage clamp analysis. In kind it is cell-based, HEK293.
Data set [19] addresses Sodium channel protein type 8 subunit alpha (Homo sapiens, UniProt Q9UQD0). Briefly: Inhibition of full length human Nav1.6 channel expressed in HEK cells co-expressing human sodium channel subunit beta1 at holding potential -35 mV by automated voltage clamp analysis. Format: cell-based, HEK293.
Data set [20] has as its target Sodium channel protein type 10 subunit alpha (Homo sapiens, UniProt Q9Y5Y9). The data set can be described thus: Inhibition of full length human Nav1.8 channel expressed in HEK cells co-expressing human sodium channel subunit beta3 at holding potential -20 mV by manual voltage clamp analysis. In kind it is cell-based, HEK293.
Data set [21] has as its target Sodium channel protein type 3 subunit alpha (Homo sapiens, UniProt Q9NY46). Briefly: Inhibition of full length human Nav1.3 channel expressed in HEK cells co-expressing human sodium channel subunit beta1 at holding potential -50 mV by automated voltage clamp analysis. In kind it is cell-based, HEK293.
For data set [22], the target named is Sodium channel protein type 9 subunit alpha (Rattus norvegicus, UniProt O08562). The data set can be described thus: Inhibition of rat Nav1.7 channel by automated voltage clamp analysis.

Active and inactive are the calls of the source. No cut-off for these calls is given here.

Broadly, the inhibition is the share of the control response that was lost under treatment. One may read the IC50 as the midpoint of a concentration-inhibition curve.

hERG (KCNH2), sequence (Q12809 whole entry): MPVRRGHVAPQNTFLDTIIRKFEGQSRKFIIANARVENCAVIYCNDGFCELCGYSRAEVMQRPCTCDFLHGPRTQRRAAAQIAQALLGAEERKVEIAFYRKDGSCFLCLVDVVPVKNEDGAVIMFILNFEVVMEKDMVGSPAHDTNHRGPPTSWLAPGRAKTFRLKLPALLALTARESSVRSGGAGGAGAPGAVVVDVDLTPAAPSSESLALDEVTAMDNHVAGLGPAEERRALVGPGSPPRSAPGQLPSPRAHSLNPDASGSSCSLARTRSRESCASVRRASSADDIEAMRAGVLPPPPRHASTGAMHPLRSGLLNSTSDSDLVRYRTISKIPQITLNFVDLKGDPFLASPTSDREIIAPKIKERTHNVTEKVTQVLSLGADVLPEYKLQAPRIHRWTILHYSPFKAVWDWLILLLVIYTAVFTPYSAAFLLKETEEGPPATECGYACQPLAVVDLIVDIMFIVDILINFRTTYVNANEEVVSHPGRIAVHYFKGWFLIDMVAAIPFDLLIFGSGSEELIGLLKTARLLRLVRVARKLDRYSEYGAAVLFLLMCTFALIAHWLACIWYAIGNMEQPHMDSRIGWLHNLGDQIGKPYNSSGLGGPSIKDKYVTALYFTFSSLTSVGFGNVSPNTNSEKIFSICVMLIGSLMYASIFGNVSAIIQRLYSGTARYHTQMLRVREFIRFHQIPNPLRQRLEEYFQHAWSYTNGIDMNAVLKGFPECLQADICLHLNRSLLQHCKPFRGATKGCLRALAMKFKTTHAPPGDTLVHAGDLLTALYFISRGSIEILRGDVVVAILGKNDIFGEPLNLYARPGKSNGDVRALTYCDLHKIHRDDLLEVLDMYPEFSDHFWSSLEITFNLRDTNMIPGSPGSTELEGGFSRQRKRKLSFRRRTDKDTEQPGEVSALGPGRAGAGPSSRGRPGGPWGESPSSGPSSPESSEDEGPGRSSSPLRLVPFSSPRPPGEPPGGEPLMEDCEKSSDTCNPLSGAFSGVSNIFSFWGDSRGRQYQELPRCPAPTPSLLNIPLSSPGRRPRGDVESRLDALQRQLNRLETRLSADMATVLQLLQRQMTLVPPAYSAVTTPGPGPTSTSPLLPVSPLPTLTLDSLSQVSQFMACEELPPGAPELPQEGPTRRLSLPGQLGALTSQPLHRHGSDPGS
Sodium channel protein type 5 subunit alpha, sequence (Q14524 whole entry): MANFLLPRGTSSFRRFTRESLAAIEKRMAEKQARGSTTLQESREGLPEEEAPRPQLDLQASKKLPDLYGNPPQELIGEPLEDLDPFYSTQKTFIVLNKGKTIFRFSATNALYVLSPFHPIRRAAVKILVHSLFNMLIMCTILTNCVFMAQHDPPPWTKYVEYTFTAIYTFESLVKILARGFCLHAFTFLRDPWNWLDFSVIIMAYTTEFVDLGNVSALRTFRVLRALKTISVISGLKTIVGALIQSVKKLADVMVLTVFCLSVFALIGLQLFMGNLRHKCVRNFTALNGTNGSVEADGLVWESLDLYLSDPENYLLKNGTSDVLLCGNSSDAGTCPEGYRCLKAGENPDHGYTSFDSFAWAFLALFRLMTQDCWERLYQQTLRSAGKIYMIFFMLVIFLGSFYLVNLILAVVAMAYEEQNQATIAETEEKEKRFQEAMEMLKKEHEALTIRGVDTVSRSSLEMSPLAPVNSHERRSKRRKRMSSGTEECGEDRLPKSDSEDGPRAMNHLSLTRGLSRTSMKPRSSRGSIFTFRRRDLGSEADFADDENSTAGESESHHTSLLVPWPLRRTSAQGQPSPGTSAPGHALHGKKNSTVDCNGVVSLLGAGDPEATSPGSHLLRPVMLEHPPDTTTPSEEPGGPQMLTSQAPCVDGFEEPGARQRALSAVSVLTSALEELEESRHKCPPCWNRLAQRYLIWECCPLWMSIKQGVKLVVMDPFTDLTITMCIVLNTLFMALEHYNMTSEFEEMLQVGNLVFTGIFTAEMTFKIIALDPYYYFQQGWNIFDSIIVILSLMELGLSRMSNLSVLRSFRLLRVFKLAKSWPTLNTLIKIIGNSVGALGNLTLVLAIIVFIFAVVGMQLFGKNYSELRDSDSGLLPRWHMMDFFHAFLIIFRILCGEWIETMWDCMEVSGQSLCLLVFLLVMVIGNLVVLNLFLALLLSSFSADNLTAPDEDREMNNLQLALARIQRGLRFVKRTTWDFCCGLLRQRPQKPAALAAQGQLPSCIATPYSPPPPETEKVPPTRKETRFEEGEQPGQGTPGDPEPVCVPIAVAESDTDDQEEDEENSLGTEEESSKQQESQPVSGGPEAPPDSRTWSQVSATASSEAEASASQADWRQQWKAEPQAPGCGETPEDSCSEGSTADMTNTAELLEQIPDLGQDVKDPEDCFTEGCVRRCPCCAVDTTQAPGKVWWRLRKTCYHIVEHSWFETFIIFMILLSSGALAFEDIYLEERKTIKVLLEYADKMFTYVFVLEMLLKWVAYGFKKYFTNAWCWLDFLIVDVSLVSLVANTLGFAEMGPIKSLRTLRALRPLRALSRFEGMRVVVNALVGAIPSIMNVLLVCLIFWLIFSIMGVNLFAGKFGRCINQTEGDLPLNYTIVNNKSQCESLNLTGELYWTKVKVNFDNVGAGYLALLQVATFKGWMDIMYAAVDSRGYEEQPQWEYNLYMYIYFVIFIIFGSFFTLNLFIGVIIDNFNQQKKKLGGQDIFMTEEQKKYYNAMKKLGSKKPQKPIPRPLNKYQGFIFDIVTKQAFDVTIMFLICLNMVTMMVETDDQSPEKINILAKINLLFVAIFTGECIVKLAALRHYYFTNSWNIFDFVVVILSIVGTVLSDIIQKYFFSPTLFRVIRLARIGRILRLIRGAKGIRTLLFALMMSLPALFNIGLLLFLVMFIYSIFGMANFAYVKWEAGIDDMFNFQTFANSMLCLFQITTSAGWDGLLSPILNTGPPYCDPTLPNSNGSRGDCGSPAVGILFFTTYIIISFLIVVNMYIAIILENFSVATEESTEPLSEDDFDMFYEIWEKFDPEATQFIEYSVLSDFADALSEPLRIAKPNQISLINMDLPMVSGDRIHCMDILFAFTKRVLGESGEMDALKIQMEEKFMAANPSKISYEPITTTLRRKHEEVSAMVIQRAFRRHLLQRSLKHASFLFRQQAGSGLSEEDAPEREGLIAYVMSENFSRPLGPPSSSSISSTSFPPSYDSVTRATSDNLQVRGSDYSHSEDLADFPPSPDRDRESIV
Sodium channel protein type 9 subunit alpha (Homo sapiens, UniProt Q15858), sequence (Q15858 whole entry): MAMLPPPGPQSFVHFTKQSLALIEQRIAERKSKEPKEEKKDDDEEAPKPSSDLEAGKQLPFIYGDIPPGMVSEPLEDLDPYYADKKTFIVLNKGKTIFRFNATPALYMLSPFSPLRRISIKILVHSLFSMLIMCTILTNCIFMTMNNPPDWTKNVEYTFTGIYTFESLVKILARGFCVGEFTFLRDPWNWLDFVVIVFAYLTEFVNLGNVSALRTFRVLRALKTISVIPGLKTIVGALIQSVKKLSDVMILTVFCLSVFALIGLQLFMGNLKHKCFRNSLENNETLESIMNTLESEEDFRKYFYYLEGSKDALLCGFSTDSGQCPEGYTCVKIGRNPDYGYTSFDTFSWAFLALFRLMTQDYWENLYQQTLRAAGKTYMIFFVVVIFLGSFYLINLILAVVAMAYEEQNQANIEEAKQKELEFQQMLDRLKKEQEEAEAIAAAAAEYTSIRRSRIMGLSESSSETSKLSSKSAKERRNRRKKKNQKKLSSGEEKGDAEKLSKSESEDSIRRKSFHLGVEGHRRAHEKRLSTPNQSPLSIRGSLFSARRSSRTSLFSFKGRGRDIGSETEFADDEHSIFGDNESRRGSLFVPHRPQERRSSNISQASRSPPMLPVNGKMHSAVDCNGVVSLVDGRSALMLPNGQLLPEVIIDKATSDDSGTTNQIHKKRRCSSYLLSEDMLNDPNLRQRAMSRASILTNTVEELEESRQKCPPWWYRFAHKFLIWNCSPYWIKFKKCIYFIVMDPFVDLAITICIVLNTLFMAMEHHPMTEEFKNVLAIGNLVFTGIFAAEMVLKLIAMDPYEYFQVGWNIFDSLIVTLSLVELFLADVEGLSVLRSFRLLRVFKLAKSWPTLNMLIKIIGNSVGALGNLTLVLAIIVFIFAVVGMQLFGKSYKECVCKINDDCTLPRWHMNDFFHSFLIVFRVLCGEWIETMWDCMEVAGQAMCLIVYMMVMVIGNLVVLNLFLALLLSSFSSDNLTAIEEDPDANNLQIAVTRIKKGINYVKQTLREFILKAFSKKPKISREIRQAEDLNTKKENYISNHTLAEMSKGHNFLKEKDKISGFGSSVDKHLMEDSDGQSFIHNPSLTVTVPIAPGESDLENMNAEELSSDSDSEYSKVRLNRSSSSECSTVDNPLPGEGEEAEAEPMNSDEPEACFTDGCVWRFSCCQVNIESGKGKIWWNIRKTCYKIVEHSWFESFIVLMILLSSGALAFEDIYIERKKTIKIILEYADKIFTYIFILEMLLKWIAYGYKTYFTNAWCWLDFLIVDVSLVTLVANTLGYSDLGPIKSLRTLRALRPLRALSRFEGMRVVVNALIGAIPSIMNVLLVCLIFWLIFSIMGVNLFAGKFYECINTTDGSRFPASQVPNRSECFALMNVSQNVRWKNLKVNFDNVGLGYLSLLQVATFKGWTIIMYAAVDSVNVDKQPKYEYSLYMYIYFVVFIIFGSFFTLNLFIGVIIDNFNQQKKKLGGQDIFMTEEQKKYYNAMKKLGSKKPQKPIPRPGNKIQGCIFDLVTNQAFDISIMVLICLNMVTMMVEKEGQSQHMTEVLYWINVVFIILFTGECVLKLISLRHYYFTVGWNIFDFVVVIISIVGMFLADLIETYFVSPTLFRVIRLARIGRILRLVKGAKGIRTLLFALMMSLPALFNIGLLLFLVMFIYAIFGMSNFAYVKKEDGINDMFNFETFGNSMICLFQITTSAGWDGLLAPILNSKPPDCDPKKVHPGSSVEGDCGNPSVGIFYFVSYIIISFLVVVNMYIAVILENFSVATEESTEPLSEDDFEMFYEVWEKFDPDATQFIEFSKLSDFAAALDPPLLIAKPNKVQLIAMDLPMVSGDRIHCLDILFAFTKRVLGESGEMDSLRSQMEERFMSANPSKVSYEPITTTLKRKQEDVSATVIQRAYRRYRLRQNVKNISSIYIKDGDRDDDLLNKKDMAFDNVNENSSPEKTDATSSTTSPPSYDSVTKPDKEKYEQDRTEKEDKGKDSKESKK

With `O=S(=O)(Nc1ncns1)c1cc(F)c(Oc2ccc(Cl)cc2-c2ncc3cnccn23)cc1F`, at hERG (KCNH2), the inhibition at 5 µM was less than 11%.
The molecule `Nc1noc2ccc(-c3cc(Cl)ccc3Oc3cc(F)c(S(=O)(=O)Nc4ncccn4)cc3F)cc12` returned an inhibition at 5 µM at hERG (KCNH2) of less than 11%. For the same molecule, the IC50 was 0.57 µM at Cytochrome P450 2C9; greater than 10 µM against Cytochrome P450 3A4; greater than 10 µM at Cytochrome P450 1A2; greater than 10 µM against Cytochrome P450 2D6; greater than 10 µM against Cytochrome P450 2C19.
`Nc1noc2ccc(-c3cc(Cl)ccc3Oc3cc(F)c(S(=O)(=O)NCc4ncccn4)cc3F)cc12`: the 50% inhibitory concentration (IC50) in [1] came to 5.2 µM.
`O=S(=O)(Nc1ncns1)c1cc(F)c(Oc2ccc(Cl)cc2-c2cnc3n2CCNC3)cc1F` registered an IC50 in [2] greater than 10 µM. The same molecule displayed an inhibition at 5 µM at hERG (KCNH2) of less than 11%.
`Nc1n[nH]c2ccc(-c3cc(Cl)ccc3Oc3cc(F)c(S(=O)(=O)Nc4ncns4)cc3F)cc12` registered an IC50 in [2] greater than 10 µM. At hERG (KCNH2), this molecule registered an inhibition at 5 µM of less than 11%.
As for `O=c1[nH]c2ccc(-c3cc(Cl)ccc3Oc3cc(F)c(S(=O)(=O)Nc4ncns4)cc3F)cc2[nH]1`, in data set [2], the IC50 was greater than 10 µM. This molecule came in with an inhibition at 5 µM at hERG (KCNH2) of less than 11%.
Take `Nc1noc2ccc(-c3cc(Cl)ccc3Oc3cc(F)c(S(=O)(=O)Nc4cscn4)cc3F)cc12`: the inhibition at 5 µM at hERG (KCNH2) is less than 11%.
For `CNc1noc2ccc(-c3cc(Cl)ccc3Oc3cc(F)c(S(=O)(=O)Nc4ncns4)cc3F)cc12`, in data set [2], inhibition was half-maximal at 0.23 µM (IC50). The molecule also registered an inhibition at 5 µM on hERG (KCNH2) of less than 11%.
`Nc1noc2ccc(-c3cc(Cl)ccc3Oc3cc(F)c(S(=O)(=O)[N-]c4ncns4)cc3F)cc12.[Na+]`: the Activity in the data set with Rattus norvegicus [3] amounted to 60%; in the data set with Rattus norvegicus [4], 43%; with Mus musculus [7], 59%; in the data set with Mus musculus [8], 83%. Moreover, the “Cp(f)” value in the data set with Rattus norvegicus [5] and in the data set with Rattus norvegicus [6] was 250 nM in each case.
On to `O=S(=O)(Nc1ncns1)c1cc(F)c(Oc2ccc(Cl)cc2-c2cccc3nccn23)cc1F`, for which the IC50 in data set [1] was 0.017 µM; in data set [2] it was greater than 10 µM. In addition, the inhibition at 5 µM on hERG (KCNH2) is less than 11%.
The molecule `Nc1noc2ccc(-c3cccnc3Oc3cc(F)c(S(=O)(=O)Nc4ncns4)cc3F)cc12` returned an inhibition at 5 µM at hERG (KCNH2) of less than 11%.
With `Nc1noc2ccc(CCOc3cc(F)c(S(=O)(=O)Nc4ncns4)cc3F)cc12`, the IC50 in data set [1] was found to be 0.241 µM. For the same molecule, the inhibition at 5 µM at hERG (KCNH2) is less than 11%.
`Nc1noc2ccc(-c3cc(F)ccc3Oc3cc(F)c(S(=O)(=O)Nc4ncns4)cc3F)cc12` gave an inhibition at 5 µM at hERG (KCNH2) of less than 11%.
As for `Nc1noc2ccc(-c3ccccc3Oc3cc(F)c(S(=O)(=O)Nc4ncns4)cc3F)cc12`, at hERG (KCNH2), the inhibition at 5 µM was less than 11%.
With `Nc1noc2ccc(-c3cc(Cl)ccc3Oc3cc(F)c(S(=O)(=O)Nc4ncns4)cc3F)cc12`, the Ratio IC50 in data set [9] was greater than 60. The Activity entry with Rattus norvegicus [10] and in the data set on Mus musculus [15] was “Dose-dependent effect” in each case. Besides, the result in the data set on Rattus norvegicus [11], in the data set on Rattus norvegicus [13] and with Mus musculus [14] was inactive. For the same molecule, in the data set with Rattus norvegicus [12], the outcome was Active.
For the molecule `Nc1nc2cc(-c3cc(Cl)ccc3Oc3cc(F)c(S(=O)(=O)Nc4ncns4)cc3F)ccc2[nH]1`, the IC50 is greater than 10 µM in [2]; 6.38 µM in data set [16]; 0.0002 µM in data set [17]; greater than 10 µM in data set [18]; 0.0008 µM in data set [19]; 3.85 µM in [20]. This molecule also registered an IC50 in [21] of 9.33 µM. In addition, the Ratio IC50 in the data set filed under Homo sapiens is greater than 12000. This molecule also showed an inhibition at 5 µM on hERG (KCNH2) of less than 11%.
Regarding `O=S(=O)(Nc1ncns1)c1cc(F)c(Oc2ccc(Cl)cc2-c2ccc3nccnc3c2)cc1F`, the figures for the IC50 in data set [2] and in data set [22] were greater than 10 µM and 0.74 µM, respectively. Moreover, the Ratio IC50 in the data set listed under Homo sapiens was greater than 2700; in data set [9], greater than 200. Further, the inhibition at 5 µM at hERG (KCNH2) was less than 11%.
On to `O=S(=O)(Nc1ncns1)c1cc(F)c(Oc2ccc(Cl)cc2-c2ccc3[nH]cnc3c2)cc1F`, for which the IC50 in data set [2] was greater than 10 µM. At hERG (KCNH2), this molecule gave an inhibition at 5 µM of less than 11%.
